From ChEMBL document CHEMBL1123545 (J Med Chem, 1986)
Converted amounts (≈) assume the structure as drawn. Values belong to the molecule of their own block, whether it stands above or below them.

How the values were obtained:
L1210 [1] = experiment: Compound was evaluated for growth inhibition and minimal inhibitory concentration was reported against L1210 cells.; assay type: functional, Mus musculus
Mus musculus [2] = experiment: Antitumor activity against L1210 leukemia in mice after subcutaneous administration (Q2Dx5) at a dose 18 mg/kg out of 9 mice tested; assay type: ADME, organism-based; design: dose 18 mg/kg, route subcutaneous; settings: in vivo, sc
Mus musculus [3] = experiment: Compound was evaluated for antitumor activity against L1210 leukemia in mice after subcutaneous administration (Q2Dx5) at a dose 32 mg/kg; assay type: functional; settings: L1210, sc
L1210 [4] = experiment: (§1) Compound was evaluated for transport properties against L1210 cells for influx; assay type: functional, cell-based, Mus musculus
Mus musculus [5] = experiment: Compound was evaluated for antitumor activity against L1210 leukemia in mice after subcutaneous administration (Q2Dx5) at a dose 9 mg/kg; assay type: functional; settings: for ILS at 9 mg/kg: Mus musculus, L1210, sc
Mus musculus [6] = experiment: Compound was evaluated for antitumor activity against L1210 leukemia in mice after subcutaneous administration (Q2Dx5) at 32 mg/kg; assay type: functional
Mus musculus [7] = experiment: Antitumor activity against L1210 leukemia in mice after subcutaneous administration (Q2Dx5) at a dose 17 mg/kg out of 9 mice tested; assay type: functional
Mus musculus [8] = experiment: (§2) Antitumor activity against L1210 leukemia in mice after subcutaneous administration (Q2Dx5) at a dose 12 mg/kg out of 3 mice tested; assay type: functional
Mus musculus [9] = experiment: Compound was evaluated for antitumor activity against L1210 leukemia in mice after subcutaneous administration (Q2Dx5) at a dose 18 mg/kg; assay type: functional; settings: for ILS at 18 mg/kg: L1210, sc
L1210 [10] = experiment: Compound was evaluated for transport properties against L1210 cells for efflux; assay type: functional, Mus musculus
Mus musculus [11] = experiment: (§3) Antitumor activity against L1210 leukemia in mice after subcutaneous administration (Q2Dx5) at a dose 32 mg/kg out of 6 mice tested; assay type: ADME, organism-based; design: dose 32 mg/kg, route subcutaneous; settings: in vivo, sc
Mus musculus [12] = experiment: Compound was evaluated for antitumor activity against L1210 leukemia in mice after subcutaneous administration (Q2Dx5) at a dose 12 mg/kg; assay type: functional; settings: for ILS at 12 mg/kg: L1210, sc
Mus musculus [13] = experiment: (§4) Antitumor activity against L1210 leukemia in mice after subcutaneous administration (Q2Dx5) at a dose 24 mg/kg out of 9 mice tested; assay type: ADME, organism-based; design: dose 24 mg/kg, route subcutaneous; settings: in vivo, sc
Mus musculus [14] = experiment: as §4; assay type: functional
Mus musculus [15] = experiment: as §3; assay type: functional
Mus musculus [16] = experiment: as §2; assay type: ADME, organism-based; design: dose 12 mg/kg, route subcutaneous; settings: in vivo, sc
Mus musculus [17] = experiment: (§5) Antitumor activity against L1210 leukemia in mice after subcutaneous administration (Q2Dx5) at a dose 24 mg/kg out of 3 mice tested; assay type: ADME, organism-based; design: dose 24 mg/kg, route subcutaneous; settings: in vivo, sc
Mus musculus [18] = experiment: Antitumor activity against L1210 leukemia in mice after subcutaneous administration (Q2Dx5) at a dose 18/mg/kg out of 9 mice tested; assay type: functional
Mus musculus [19] = experiment: (§6) Antitumor activity against L1210 leukemia in mice after subcutaneous administration (Q2Dx5) at a dose 9 mg/kg out of 6 mice tested; assay type: ADME, organism-based; design: dose 9 mg/kg, route subcutaneous; settings: in vivo, sc
Mus musculus [20] = experiment: (§7) Antitumor activity against L1210 leukemia in mice after subcutaneous administration (Q2Dx5) at a dose 12 mg/kg out of 9 mice tested; assay type: functional
Mus musculus [21] = experiment: Compound was evaluated for antitumor activity against L1210 leukemia in mice after subcutaneous administration (Q2Dx5) at a dose 24 mg/kg; assay type: functional; settings: for ILS at 24 mg/kg: L1210, sc
Mus musculus [22] = experiment: as §5; assay type: functional
Mus musculus [23] = experiment: as §7; assay type: ADME, organism-based; design: dose 12 mg/kg, route subcutaneous; settings: in vivo, sc
Mus musculus [24] = experiment: as §6; assay type: functional
Enterococcus faecium = experiment: Compound was evaluated for growth inhibition against Streptococcus faecium ATCC 8043; assay type: functional, organism-based
Mus musculus [25] = experiment: Compound was evaluated for antitumor activity against L1210 leukemia in mice after subcutaneous administration (Q2Dx5) at 24 mg/kg; assay type: functional
Mus musculus [26] = experiment: (§8) Antitumor activity against L1210 leukemia in mice after subcutaneous administration (Q2Dx5) at a dose 18 mg/kg out of 10 mice tested; assay type: ADME, organism-based; design: dose 18 mg/kg, route subcutaneous; settings: in vivo, sc
Mus musculus [27] = experiment: (§9) Antitumor activity against L1210 leukemia in mice after subcutaneous administration (Q2Dx5) at a dose 12 mg/kg out of 10 mice tested; assay type: functional
Mus musculus [28] = experiment: (§10) Antitumor activity against L1210 leukemia in mice after subcutaneous administration (Q2Dx5) at a dose 24 mg/kg out of 10 mice tested; assay type: ADME, organism-based; design: dose 24 mg/kg, route subcutaneous; settings: in vivo, sc
Mus musculus [29] = experiment: as §9; assay type: ADME, organism-based; design: dose 12 mg/kg, route subcutaneous; settings: in vivo, sc
Mus musculus [30] = experiment: (§11) Antitumor activity against L1210 leukemia in mice after subcutaneous administration (Q2Dx5) at a dose 9 mg/kg out of 10 mice tested; assay type: functional
Mus musculus [31] = experiment: (§12) Antitumor activity against L1210 leukemia in mice after subcutaneous administration (Q2Dx5) at a dose 32 mg/kg out of 10 mice tested; assay type: ADME, organism-based; design: dose 32 mg/kg, route subcutaneous; settings: in vivo, sc
Mus musculus [32] = experiment: as §10; assay type: functional
Mus musculus [33] = experiment: as §8; assay type: functional
Mus musculus [34] = experiment: Compound was evaluated for antitumor activity against L1210 leukemia in mice after subcutaneous administration (Q2Dx5) at 18 mg/kg; assay type: functional
Mus musculus [35] = experiment: as §12; assay type: functional
Mus musculus [36] = experiment: as §11; assay type: ADME, organism-based; design: dose 9 mg/kg, route subcutaneous; settings: in vivo, sc
L1210 [37] = experiment: as §1; assay type: functional, Mus musculus
Dihydrofolate reductase = target: T1, Dihydrofolate reductase (Mus musculus, UniProt P00375); experiment: Compound was evaluated for binding affinity against Dihydrofolate reductase of L1210 cells; assay type: cell-based
T1 sequence (P00375 whole entry): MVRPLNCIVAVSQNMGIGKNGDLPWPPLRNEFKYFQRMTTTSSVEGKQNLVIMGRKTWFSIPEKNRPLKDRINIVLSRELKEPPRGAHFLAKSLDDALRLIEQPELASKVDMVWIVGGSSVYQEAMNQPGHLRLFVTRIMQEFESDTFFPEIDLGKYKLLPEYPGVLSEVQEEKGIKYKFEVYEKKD

Lacticaseibacillus casei = experiment: Compound was evaluated for growth inhibition against Lactobacillus casei ATCC 7469; assay type: functional, organism-based
[38] = Enterococcus faecium, ATCC 8043, read-out: IC50

SMILES: CC[C@@H](Cc1cnc2nc(N)nc(N)c2n1)c1ccc(C(=O)N[C@@H](CCC(=O)O)C(=O)O)cc1
MIC50 (L1210 [1]; Mus musculus): 1.52 nM (≈ 0.711 ng/mL) | Toxic deaths (Mus musculus [2]): 0 | ILS at 32 mg/kg (Mus musculus [3]): 181% | Ki (L1210 [4]): 1620 nM | MST (Mus musculus [5]): 15.7 days | MST (Mus musculus [6]): 18.8 days | 30 days survivors (Mus musculus [7]): 0 | 30 days survivors (Mus musculus [8]): 0 | MST (Mus musculus [9]): 17.3 days | ILS at 18 mg/kg (Mus musculus [9]): 187% | k (L1210 [10]): 0.249 min⁻¹ | Toxic deaths (Mus musculus [11]): 1 | ILS at 12 mg/kg (Mus musculus [12]): 138% | Toxic deaths (Mus musculus [13]): 0 | 30 days survivors (Mus musculus [14]): 0 | ILS at 24 mg/kg (Mus musculus [14]; L1210, sc): 163% | 30 days survivors (Mus musculus [15]): 0 | Toxic deaths (Mus musculus [16]): 0

SMILES: CC[C@H](Cc1cnc2nc(N)nc(N)c2n1)c1ccc(C(=O)N[C@@H](CCC(=O)O)C(=O)O)cc1
MIC50 (L1210 [1]; Mus musculus): 0.43 nM (≈ 0.201 ng/mL) | Toxic deaths (Mus musculus [17]): 3 | 30 days survivors (Mus musculus [18]): 1 | Toxic deaths (Mus musculus [2]): 5 | Ki (L1210 [4]): 1580 nM | MST (Mus musculus [5]): 18.3 days | ILS at 9 mg/kg (Mus musculus [5]): 177% | Toxic deaths (Mus musculus [19]): 0 | 30 days survivors (Mus musculus [20]): 0 | MST (Mus musculus [9]): 17.5 days | ILS at 18 mg/kg (Mus musculus [9]): 165% | k (L1210 [10]): 0.253 min⁻¹ | MST (Mus musculus [21]): 10 days | ILS at 24 mg/kg (Mus musculus [21]): 55% | 30 days survivors (Mus musculus [22]): 0 | MST (Mus musculus [12]): 19.8 days | ILS at 12 mg/kg (Mus musculus [12]): 199% | Toxic deaths (Mus musculus [23]): 3 | 30 days survivors (Mus musculus [24]): 0

SMILES: CC[C@H](CC1CNc2nc(N)nc(N)c2N1)c1ccc(C(=O)N[C@@H](CCC(=O)O)C(=O)O)cc1 (mixture of isomers)
IC50 (Enterococcus faecium; [38]): 2.5 ng/mL

SMILES: CCC(Cc1cnc2nc(N)nc(N)c2n1)c1ccc(C(=O)NC(CCC(=O)O)C(=O)O)cc1 (racemic)
MST (Mus musculus [25]): 20.3 days | Toxic deaths (Mus musculus [26]): 0 | 30 days survivors (Mus musculus [27]): 0 | ILS at 32 mg/kg (Mus musculus [3]): 67% | MST (Mus musculus [5]): 15.5 days | ILS at 9 mg/kg (Mus musculus [5]): 135% | Toxic deaths (Mus musculus [28]): 2 | MST (Mus musculus [6]): 16 days | Toxic deaths (Mus musculus [29]): 0 | 30 days survivors (Mus musculus [30]): 0 | Toxic deaths (Mus musculus [31]): 10 | ILS at 18 mg/kg (Mus musculus [9]; Mus musculus): 193% | 30 days survivors (Mus musculus [32]): 2 | 30 days survivors (Mus musculus [33]): 0 | ILS at 24 mg/kg (Mus musculus [21]): 207% | MST (Mus musculus [34]): 19.3 days | 30 days survivors (Mus musculus [35]): 0 | MST (Mus musculus [12]): 16.7 days | ILS at 12 mg/kg (Mus musculus [12]): 153% | Toxic deaths (Mus musculus [36]): 0

SMILES: CCC(CC1=Nc2c(N)nc(N)nc2NC1)c1ccc(C(=O)NC(CCC(=O)O)C(=O)O)cc1 (racemic)
IC50 (Enterococcus faecium; [38]): 1.1 ng/mL (≈ 2.34 nM)

SMILES: CCC(CC1CNc2nc(N)nc(N)c2N1)c1ccc(C(=O)NC(CCC(=O)O)C(=O)O)cc1 (racemic)
IC50 (Enterococcus faecium; [38]): 2.6 ng/mL (≈ 5.51 nM)

SMILES: CC[C@H](CC1CNc2nc(N)nc(N)c2N1)c1ccc(C(=O)N[C@@H](CCC(=O)O)C(=O)O)cc1 (stereo in doubt)
IC50 (Enterococcus faecium): 3.1 ng/mL (≈ 6.57 nM)

MIC50 (L1210 [1]; Mus musculus): 0.68 nM (≈ 0.308 ng/mL) | Ki (Dihydrofolate reductase): 0.00424 nM
SMILES: C[C@H](Cc1cnc2nc(N)nc(N)c2n1)c1ccc(C(=O)N[C@@H](CCC(=O)O)C(=O)O)cc1 (stereo in doubt; d-L-15a)
Ki (L1210 [4]): 1910 nM | k (L1210 [37]): 0.258 min⁻¹

SMILES: CC[C@@H](CC1=Nc2c(N)nc(N)nc2NC1)c1ccc(C(=O)N[C@@H](CCC(=O)O)C(=O)O)cc1 (stereo in doubt; form 1)
IC50 (Enterococcus faecium): 1.1 ng/mL (≈ 2.34 nM)

SMILES: CC[C@@H](CC1=Nc2c(N)nc(N)nc2NC1)c1ccc(C(=O)N[C@@H](CCC(=O)O)C(=O)O)cc1 (stereo in doubt; form 2)
IC50 (Enterococcus faecium; [38]): 1.1 ng/mL (≈ 2.34 nM)

MIC50 (L1210 [1]): 1.18 nM (≈ 0.535 ng/mL) | Ki (Dihydrofolate reductase): 0.00317 nM
SMILES: C[C@H](Cc1cnc2nc(N)nc(N)c2n1)c1ccc(C(=O)N[C@@H](CCC(=O)O)C(=O)O)cc1 (stereo in doubt; l-L-15a)
Ki (L1210 [4]): 1900 nM | k (L1210 [37]): 0.267 min⁻¹

SMILES: CN(Cc1cnc2nc(N)nc(N)c2n1)c1ccc(C(=O)N[C@@H](CCC(=O)O)C(=O)O)cc1 [METHOTREXATE]
MIC50 (L1210 [1]; Mus musculus): 2.48 nM (≈ 1.13 ng/mL) | Toxic deaths (Mus musculus [26]): 6 | 30 days survivors (Mus musculus [27]): 0 | Ki (L1210 [4]): 5610 nM | ILS (Mus musculus [5]): 137% | MST (Mus musculus [5]): 15.7 days | Toxic deaths (Mus musculus [28]): 10 | IC50 (Lacticaseibacillus casei): 0.013 ng/mL (≈ 0.0286 nM) | Toxic deaths (Mus musculus [29]): 1 | 30 days survivors (Mus musculus [30]): 0 | ILS (Mus musculus [9]): 119% | MST (Mus musculus [9]): 14.5 days | IC50 (Enterococcus faecium): 0.4 ng/mL (≈ 0.88 nM) | k (L1210 [10]): 0.213 min⁻¹ | 30 days survivors (Mus musculus [32]): 0 | 30 days survivors (Mus musculus [33]): 0 | MST (Mus musculus [21]): 9.6 days | ILS at 24 mg/kg (Mus musculus [21]): 46% | MST (Mus musculus [12]): 16.3 days | Toxic deaths (Mus musculus [36]): 0
